This note sets out measurements from ChEMBL document CHEMBL1141020, “Anthranilimide-based glycogen phosphorylase inhibitors for the treatment of type 2 diabetes: 1. Identification of 1-amino-1-cycloalkyl carboxylic acid headgroups” (Bioorg Med Chem Lett, 2009).

Some results are limits rather than exact numbers.

Series [1] can be described thus: Metabolic stability in rat liver microsomes assessed as half life. The series is classed as ADME, Microsome. In general terms: Liver microsomes are vesicles of endoplasmic reticulum, rich in cytochrome P450 enzymes.
The nature of series [2]: Clearance in Sprague-Dawley rat at 10 mg/kg, po or 2.5 mg/kg, iv. It counts as ADME, organism-based. The note with it: in vivo.
Series [3] in a line: Half life in Sprague-Dawley rat at 10 mg/kg, po. The series is classed as ADME, organism-based. On the set-up: dose 10 mg/kg, route oral. The conditions noted are these: in vivo.
Series [4] is described as follows: Clearance in Beagle dog at 5 mg/kg, po or 1 mg/kg, iv. It counts as ADME, organism-based, Canis lupus familiaris. The conditions noted are these: in vivo.
Series [5] in a line: AUC (0 to infinity) in Sprague-Dawley rat at 1 mg/kg, po. The series is classed as ADME, organism-based. More on the design: time infinity, dose 1 mg/kg, route oral. The note with it: plasma.
The nature of series [6]: Half life in Beagle dog at 5 mg/kg, po. The series is classed as ADME, organism-based, Canis lupus familiaris. On the set-up: dose 5 mg/kg, route oral. The conditions noted are these: in vivo.
The nature of series [7]: Oral bioavailability in Sprague-Dawley rat at 10 mg/kg. The series is classed as ADME, organism-based. The conditions noted are these: in vivo.
Series [8] can be described thus: Oral bioavailability in Beagle dog at 5 mg/kg. The series is classed as ADME, organism-based, Canis lupus familiaris. The note with it: in vivo.
Series [9] can be described thus: AUC (0 to infinity) in Beagle dog at 1 mg/kg, po. The series is classed as ADME, organism-based, Canis lupus familiaris. More on the design: time infinity, dose 1 mg/kg, route oral. The note with it: plasma.
The nature of series [10]: Volume of distribution at steady state in Sprague-Dawley rat at 10 mg/kg, po or 2.5 mg/kg, iv. The conditions noted are these: in vivo, read-out: Vdss. The series is classed as ADME, organism-based.
A short description of series [11]: Volume of distribution at steady state in Beagle dog at 5 mg/kg, po or 1 mg/kg, iv. The conditions noted are these: in vivo, read-out: Vdss. It counts as ADME, organism-based, Canis lupus familiaris.

As for `Cc1cc(C)c(NC(=O)Nc2cc3ccccc3cc2C(=O)N[C@H](C(=O)O)C2CCCCC2)c(C)c1`, in series [1], the half-life (as a rule, the time in which the quantity being followed falls by half) was below 0.25 h.

Consider `Cc1cc(C)c(NC(=O)Nc2cc3ccccc3cc2C(=O)NC2(C(=O)O)CCCCCCC2)c(C)c1`, for which the values for the clearance in series [2] and in [4] were 1.1 mL/min/kg and 13 mL/min/kg, respectively. Also, the half-life in series [3] is 5.4 h; in series [6], 4 h. Further, the AUC(0-inf) (usually the area under the concentration-time curve extrapolated to infinity) in series [5] was 4380 ng·h/mL; in [9], 620 ng·h/mL. The bioavailability (as a rule, dose-corrected exposure relative to a reference, in per cent) in [7] is 28%; in series [8] it was 45%. The Vd in series [10] worked out at 0.28 L/kg; in series [11], 0.5 L/kg.

`Cc1cc(C)c(NC(=O)Nc2cc3ccccc3cc2C(=O)N[C@](C)(C(=O)O)C2CCCCC2)c(C)c1` came in with a clearance in series [2] of 7.5 mL/min/kg. Further, in series [3], the half-life was 4.1 h. This molecule displayed an AUC(0-inf) in series [5] of 1720 ng·h/mL. This molecule showed a bioavailability in [7] of 37%. Further, the Vd in series [10] turned out to be 0.3 L/kg.
